Paper PMC11148078, “Potent activity of polymyxin B is associated with long-lived super-stoichiometric accumulation mediated by weak-affinity binding to lipid A” (Nature Communications, 2024)
“Also recorded” adds a separate entry of the source. Like-named read-outs stand apart in the source and are kept apart here. Bridge positions count the residues as written; N and C are the ends. Square brackets hold non-standard residues; d marks the D form. Peptide text beside a SMILES is read from it. * marks the point of attachment. X1 = CC[C@H](C)CCCCC(=O)*; Dab = NCC[C@H](N)C(=O)O

Tests used:
[1] = tested on: E. coli mcr-1+rifampicin; assay: Rifampicin potentiation / outer membrane permeability, E. coli mcr-1; assay type: cell-based
Protocol: (§1) Bacterial strains and plasmids are listed in SI Table S5. LB growth media was prepared according to manufacturer’s instructions and supplemented with 0.2% arabinose and carbenicillin (50 μg/mL) for the strains containing pBAD24-mcr1 plasmid. Cultures were started by inoculating 3 ml LB with 1–2 colonies from fresh overnight plates and grown at 37 °C until in log phase. Modified minimal inhibitory concentration (MIC) assays were performed in 96-well round bottom polystyrene plates (Corning) with a final volume of 100 µl in LB supplemented with tween-80 at 0.0005%. […] Polymyxin B sulfate (TCI Co. Ltd), polymyxin B nonapeptide (PMBN) (Sigma), and brevicidine (Genentech) were diluted directly in the assay plates. Bacteria were diluted in LB with tween-80 0.0005% and added to a final OD600 of 0.0005. Growth was measured via OD600 on a SpectraMax M5 plate reader after overnight static growth at 37 °C with humidity.

[2] = tested on: wild-type E. coli cells; assay: Whole cell SPR, wild-type E. coli; assay type: binding
Protocol: Bacterial strains were grown in LB or LB with 0.2% arabinose and carbenicillin (50 μg/mL) to log phase (OD600 approximately 0.4–0.6), centrifuged for 10 min at 2500 × g (3500 rpm using a tabletop centrifuge), and re-suspended in PBS to a final OD600 of approximately 5. SPR on whole bacterial cells was performed and analyzed as described for OMVs on C1 chip, but with an additional carry-over wash prior to the capture. Regeneration of the chip after whole cell binding also required additional steps ([…] flow rate): (1) PBS supplemented with 32 mM MgCl2 for 120 s, (2) 2.5 M NaCl for 30 s, (3) 0.5% SDS (Desorb 1, Cytiva) for 60 s with carry over controls between.

[3] = tested on: resistant-OMVs (E. coli PmrA^G53E); assay: Single-cycle kinetic SPR binding to immobilized resistant-OMVs; conditions: serial doubling injections, C1 chip
Protocol: Polymyxin B was covalently attached to a C1 chip (Series S Sensor Chip C1, Cytiva) using an amine coupling kit (Cytiva). Cartoon in Fig. 1A created with BioRender (biorender.com). Briefly, equal amounts of reagents N-hydroxysuccinimide and 1-ethyl-3-(3-dimethylaminopropyl) carbodiimide hydrochloride were mixed as per manufacturer’s instructions and immediately added to the gold chip surface for 2 min, washed with distilled deionized water, and dried. Sufficient polymyxin B (1 mM in 1 M HEPES buffer, pH 8) was added to cover the chip surface, incubated at room temperature for 1 h, washed as before, and then incubated with 1 M ethanolamine hydrochloride-NaOH, pH 8.5, for 1 min. The chip surface was washed with water, dried as previously described, immediately loaded into a Biacore S200, and primed with running buffer (described below) to equilibrate the system. C1 chips were used for multiple runs and discarded upon removal from the Biacore S200.
SCK C1-chip SPR experiments were performed in running buffer (Dulbecco’s phosphate-buffered salt solution 1x without calcium or magnesium (Fisher Scientific), pH 7.4, with 0.0005% tween-80 (Sigma) passed through a 0.2 µm filter) unless otherwise indicated. Inclusion of tween-80 prevented loss of polymyxin to the plastics[34] (also see Supplementary Information Methods). For experiments with brevicidine, which was suspended in DMSO, 0.125% DMSO was included in the running buffer. OMVs were diluted from frozen stocks to approximately 20–30 µg/ml protein in the OMV buffer. Capture of OMVs was performed at a low flow rate ([…]) for 300 s over the test channel(s) followed by a 300 s stabilization period. All subsequent steps were at a flow rate of 40 µl/ml. For single cycle kinetics, two-fold dilutions were injected over the channel(s) loaded with OMVs and a reference channel without OMVs for 30 s contact and 480 s dissociation. […]

[4] = tested on: E. coli mcr1; assay type: cell-based; conditions: for MIC: strain carrying plasmid encoding mcr-1, LB + 0.2% arabinose, carbenicillin, 0.0005% tween-80, overnight 37 °C
Protocol: as §1

[5] = tested on: E. coli PmrA^G53E; assay type: cell-based; conditions: for MIC: LB + 0.0005% tween-80, overnight 37 °C
Protocol: as §1

[6] = tested on: E. coli cells, OMVs, and LPS; assay: SPR apparent association rate averaged over cells, OMVs and LPS; assay type: binding; conditions: averaged for cells
Protocol: OMV-coated and whole cell-coated C1 chips were prepared as already described with the following changes and LPS-coated surfaces were prepared identically but with rough-LPS extracted from E. coli F583 (Rd mutant, Sigma #L6893). For LPS, cloudy colloid suspension (above its CMC, ~1 mg/ml) contains LPS micelles that were injected and captured. For all formats, sample buffer and running buffer were composed of Dulbecco’s phosphate-buffered salt solution containing 0.0005% tween-80 (Sigma), 1 mM calcium and 0.5 mM magnesium (Fisher Scientific), pH 7.4. Analysis and compartment temperatures were both set to 37 °C. Freshly prepared OMV-coated or whole cell-coated sensing surfaces were employed for each injection of polymyxin B while LPS-coated sensing surfaces could be fully regenerated by injecting 50 mM CHAPS. Reversibly bound PMBN could be reinjected over all surfaces without requiring regeneration as it fully dissociated within a few minutes.
Fresh sensing surfaces coated with whole cells and OMVs were prepared and 325 nM polymyxin B was injected at […] for 120 s over both. This injection was repeated after a long delay, and without regeneration, in order to allow free sites to become available thereby resulting in two polymyxin B binding curves for each sensing surface (Fig. 3E, F). […]

[7] = tested on: E. coli WT+rifampicin; assay: Rifampicin potentiation / outer membrane permeability, wild-type E. coli; assay type: cell-based
Protocol: as §1

| Compound | MIC in presence of rifampicin [1] [µM] | outer membrane permeabilization / rifampicin potentiation [1] | SPR binding profile [2] | SPR binding profile [3] | antibacterial activity ([4]; pBAD-mcr-1) | MIC [4] [µM] | antibacterial activity [5] | MIC [5] [µM] | ka, apparent association rate constant [6] | MIC in presence of rifampicin [7] [nM] | outer membrane permeabilization / rifampicin potentiation [7] | MIC in presence of rifampicin ([7]; rifampicin 1.56 µM, LB + 0.0005% tween-80, overnight 37 °C) [nM] |
| --- | --- | --- | --- | --- | --- | --- | --- | --- | --- | --- | --- | --- |
| CC[C@H](C)CCCCC(=O)N[C@@H](CCN)C(=O)N[C@H](C(=O)N[C@@H](CCN)C(=O)N[C@H]1CCNC(=O)[C@H]([C@@H](C)O)NC(=O)[C@H](CCN)NC(=O)[C@H](CCN)NC(=O)[C@H](CC(C)C)NC(=O)[C@@H](Cc2ccccc2)NC(=O)[C@H](CCN)NC1=O)[C@@H](C)O [Polymyxin B] (X1-[Dab]T[Dab][Dab][Dab][dF]L[Dab][Dab]T; lactam 4-C (inferred); N-terminus assumed) | 0.001 | still potentiated the activity of an antibiotic normally excluded by the outer membrane, rifampicin | same polymyxin B binding profiles were observed | exhibited only the weak, saw-tooth binding | resistant to killing by polymyxin B | 2.5 to 5 | resistant to killing by polymyxin B | 10 | 2.1 (±0.78) × 10^5 M^−1 s^−1 | <0.02 |  |  |
| CC(C)C[C@@H]1NC(=O)[C@@H](Cc2ccccc2)NC(=O)[C@H](CCN)NC(=O)[C@@H](NC(=O)[C@H](CCN)NC(=O)[C@@H](N)[C@@H](C)O)CCNC(=O)[C@H]([C@@H](C)O)NC(=O)[C@H](CCN)NC(=O)[C@H](CCN)NC1=O [PMBN] (H-T[Dab][Dab][Dab][dF]L[Dab][Dab]T; lactam 3-C) | 2.5 |  | exhibited only weak, saw-tooth binding | exhibited only weak, saw-tooth binding |  | >40 |  | >40 |  |  | still permeabilizes the outer membrane to rifampicin; also recorded: can still permeabilize the outer membrane | 78 |
